Measured values reported in patent US6852735B1, “Siastatin B derivatives having a glycosidase inhibitory activity and processes for producing the same” (Zaidan Hojin Biseibutsu Kagaku Kenkyu Kai, priority 1998, dated 2005).

Assays:
Format in all cases: biochemical
[1] = target: T1, β-D-galactosidase (from Aspergillus niger) (Aspergillus niger, UniProt P29853); experiment: β-galactosidase inhibition (Test Example 3); settings: for inhibition of β-D-galactosidase, in words: summary of Table 1
T1 construct: originated from Aspergillus niger; purchased Sigma Company; host or cells: Aspergillus niger
T1 sequence (P29853 20-1006): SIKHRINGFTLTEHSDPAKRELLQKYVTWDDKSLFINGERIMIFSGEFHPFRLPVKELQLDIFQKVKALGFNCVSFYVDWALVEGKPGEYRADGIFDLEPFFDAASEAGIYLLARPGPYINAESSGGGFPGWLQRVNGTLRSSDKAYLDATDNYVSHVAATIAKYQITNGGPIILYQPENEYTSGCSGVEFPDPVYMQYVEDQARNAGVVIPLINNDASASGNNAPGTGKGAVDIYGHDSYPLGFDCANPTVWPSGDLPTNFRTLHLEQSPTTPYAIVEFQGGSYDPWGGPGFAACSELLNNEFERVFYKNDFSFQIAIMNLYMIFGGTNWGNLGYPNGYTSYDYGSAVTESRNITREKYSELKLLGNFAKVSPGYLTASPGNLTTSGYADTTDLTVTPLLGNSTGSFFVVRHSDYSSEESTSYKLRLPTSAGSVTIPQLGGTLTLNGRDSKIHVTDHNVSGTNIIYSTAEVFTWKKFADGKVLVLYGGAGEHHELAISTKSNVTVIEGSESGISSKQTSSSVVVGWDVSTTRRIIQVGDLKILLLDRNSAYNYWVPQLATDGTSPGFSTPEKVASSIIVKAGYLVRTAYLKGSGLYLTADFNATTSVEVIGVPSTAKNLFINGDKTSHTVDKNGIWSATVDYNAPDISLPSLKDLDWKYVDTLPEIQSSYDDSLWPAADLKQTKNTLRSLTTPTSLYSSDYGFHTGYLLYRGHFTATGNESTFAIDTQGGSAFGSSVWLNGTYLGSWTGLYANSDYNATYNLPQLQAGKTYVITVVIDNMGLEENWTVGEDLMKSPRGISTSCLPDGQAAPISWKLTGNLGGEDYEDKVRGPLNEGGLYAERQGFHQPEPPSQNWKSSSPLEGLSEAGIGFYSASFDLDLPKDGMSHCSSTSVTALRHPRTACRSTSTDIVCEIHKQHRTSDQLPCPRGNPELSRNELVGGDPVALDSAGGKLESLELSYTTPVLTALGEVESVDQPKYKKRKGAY
Protocol: (§1) Thus, 0.5 mL of 0.025M citrate-phosphate buffer (pH 4.0), 0.1 mL of the same buffer containing 10 mM p-nitro-phenyl-N-acetyl-α-D-galactosaminide dissolved therein, and 0.1 mL of either water or an aqueous solution containing as the test compound any one of the compounds of the formulae (I), (V) and (X) according to this invention were mixed with each other and pre-incubated in a 96-wells titer plate at 37° C. for 10 minutes. After the completion of the pre-incubation, to the pre-incubated mixture was added 0.01 mL of 0.025 M citrate-phosphate buffer containing α-N-acetyl-galactosaminidase originated from chicken liver (a product of Sigma Company) which was dissolved in said buffer as a glycosidase to be tested. Thereafter, the enzymatic reaction was conducted at 37° C. for 30 minutes.
(§2) After the enzymatic reaction, to the reaction solution was added 1.0 mL of 0.3M glycine—sodium hydroxide buffer (pH 10.5), in order to terminate the enzymatic reaction. Thereafter, the absorbance [designated as value (a)] of light at 405 nm of the resulting reaction solution was measured. Concurrently, measurement was made of the absorbance [designated as value (b)] at 405 nm of the reaction solution as obtained in the control test where the enzymatic reaction was conducted without addition of the test compound. Further, measurements were made of the absorbance [designated as values (a′)] and the absorbance [[designated as values (b′)] at 405 nm of the solutions as obtained in the blank test and the control test, respectively, where the enzymatic reaction was not conducted in the assay test. The rate of inhibition to […] was calculated by the equation: [1-(a-a′)/(b-b′)]×100.
(§3) The test results obtained are summarized as IC50 value in Table 1 below.
This Test Example is a test example for determining the α-galactosidase or β-galactosidase-inhibitory activity of the compound of the formula (I), (V) or (X) according to this invention.
The evaluation of the α-galactosidase or β-galactosidase-inhibitory activity was conducted according to a modification of the method described in the “Journal of Biological Chemistry”, 240, p.2468 (1965).
Namely, the test was conducted in the same manner as the test for the enzyme-inhibitory activity described in Test Example 1, but with using α-galactosidase or β-galactosidase (products of by Sigma Company) originated from Aspergillus niger, as the glycosidase enzyme, and with using p-nitrophenyl-α-D-galactoside and p-nitrophenyl-β-D-galactoside as the substrate. Furthermore, absorbances of light at 405 nm were measured in the same manner as in Test Example 1. IC50 values of the test compound capable of giving the 50% inhibition to the enzymes were calculated.

[2] = tested on: β-D-glucosidase (from almond); experiment: β-glucosidase inhibition (Test Example 4); settings: for inhibition of β-D-glucosidase, in words: summary of Table 1; for 50% inhibiory concentration (IC50) Enzyme E: β-D-glucosidase from almond, substrate p-nitrophenyl-β-D-glucoside
Protocol: as §1, §2, §3
(§4) This Test Example is a test example for determining the α-glucosidase or β-glucosidase-inhibitory activity of the compound of the formula (I), (V) or (X) according to this invention.
(§5) The evaluation of the β-glucosidase-inhibitory activity was conducted according to a modification of the method described in the “Agricultural and Biological Chemistry”, 26, p.203 (1962).
(§6) Namely, the test was conducted in the same manner as the test for the enzyme-inhibitory activity described in Test Example 1, but with using α-glucosidase originated from yeast or β-glucosidase originated from almond (both enzymes are products of Sigma Company) as the glycosidase enzyme, and with using p-nitro-phenyl-α-D-glucoside or p-nitrophenyl-β-D-glucoside as the substrate. Furthermore, absorbances of light were measured in the same manner as in Test Example 1, and IC50 values of the test compound capable of giving the 50% inhibition to the enzyme were calculated.

[3] = target: α-D-glucosidase (from yeast); experiment: α-glucosidase inhibition (Test Example 4); settings: for 50% inhibiory concentration (IC50) Enzyme H: α-D-glucosidase from yeast, substrate p-nitrophenyl-α-D-glucoside; for inhibition of α-D-glucosidase, in words: summary of Table 1
Protocol: as §1, §2, §3, §4, §5, §6

O=C(N[C@H]1NC[C@H](CO)[C@H](O)[C@@H]1O)C(F)(F)F [Formula (I), 6-deacetamido-3-decarboxy-3-hydroxymethyl-6-trifluoroacetamido-siastain B]
IC50 [1]: 0.194 µM | inhibition of β-D-galactosidase, in words [1]: inhibit strongly | inhibition of β-D-glucosidase, in words [2]: inhibit strongly | 50% inhibiory concentration (IC50) Enzyme E [2]: 0.14 µg/mL | 50% inhibiory concentration (IC50) Enzyme H [3]: >100 µg/mL

CC(=O)NC1NCC(CO)C(O)C1O (stereo not drawn) [Formula (V), 3-decarboxy-4-epi-3-hydroxymethyl-siastain B]
IC50 [1]: > 490 µM | inhibition of β-D-glucosidase, in words [2]: inhibit strongly | 50% inhibiory concentration (IC50) Enzyme E [2]: 1.4 µg/mL | inhibition of α-D-glucosidase, in words [3]: inhibit strongly | 50% inhibiory concentration (IC50) Enzyme H [3]: 7 µg/mL

O=C(N[C@H]1NC[C@H](CO)[C@@H](O)[C@@H]1O)C(F)(F)F [Formula (X), 6-deacetamido-3-decarboxy-4-epi-3-hydroxymethyl-6-trifluoroacetamido-siastain B]
IC50 [1]: 232 µM | inhibition of β-D-galactosidase, in words [1]: inhibit strongly | inhibition of β-D-glucosidase, in words [2]: inhibit strongly | 50% inhibiory concentration (IC50) Enzyme E [2]: 0.13 µg/mL | inhibition of α-D-glucosidase, in words [3]: inhibit strongly | 50% inhibiory concentration (IC50) Enzyme H [3]: 0.06 µg/mL
